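Step 1: Grow cells in 96-well plates. Step 2: Expose to compound for 48 hours at 5 concentrations. Step 3: Interpolate endpoints linearly; if unreached, use highest concentration. GI50 = concentration required for 50% inhibition of growth. TGI denotes the concentration required for complete inhibition of growth.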
Columns and labels:
Experiment in all cases: growth of human tumour cells (NCI), 48 h
RPMI-8226 leukemia = test system: RPMI-8226 leukemia
SNB-19 CNS = test system: SNB-19 CNS
A498 renal = test system: A498 renal
ACHN renal = test system: ACHN renal
TK-10 renal = test system: TK-10 renal
MCF7 breast = test system: MCF7 breast
UACC-257 melanoma = test system: UACC-257 melanoma
SF-268 CNS = test system: SF-268 CNS
NCI-H460 lung = test system: NCI-H460 lung
K-562 leukemia = test system: K-562 leukemia

| SMILES | GI50 (RPMI-8226 leukemia) [µM] | TGI (RPMI-8226 leukemia) [µM] | TGI (SNB-19 CNS) [µM] | TGI (A498 renal) [µM] | TGI (ACHN renal) [µM] | GI50 (TK-10 renal) [µM] | TGI (TK-10 renal) [µM] | GI50 (MCF7 breast) [µM] | TGI (MCF7 breast) [µM] | GI50 (UACC-257 melanoma) [µM] | TGI (UACC-257 melanoma) [µM] | GI50 (SF-268 CNS) [µM] | TGI (SF-268 CNS) [µM] | TGI (NCI-H460 lung) [µM] | TGI (K-562 leukemia) [µM] | GI50 (SNB-19 CNS) [µM] | GI50 (A498 renal) [µM] | GI50 (ACHN renal) [µM] | GI50 (NCI-H460 lung) [µM] | GI50 (K-562 leukemia) [µM] |
| --- | --- | --- | --- | --- | --- | --- | --- | --- | --- | --- | --- | --- | --- | --- | --- | --- | --- | --- | --- | --- |
| N#CCCN(CCCN(CCCN(C(=O)Nc1ccccc1)c1ccccc1)C(=O)Nc1ccccc1)C(=O)Nc1ccccc1 | 3.89 | > 100 | > 8.75 | > 100 | > 8.75 | > 100 | > 100 | 11.9 | > 100 | > 100 | > 100 | 74.8 | > 100 | > 8.75 | > 8.75 |  |  |  |  |  |
| COc1cccc(-n2nc(C)c3c(N/N=C(\C)c4ccncc4)ncnc32)c1 | > 25 | > 25 | > 25 | > 25 | > 25 | 10.2 | > 25 | > 25 | > 25 | > 25 | > 25 | > 25 | > 25 | > 25 | > 25 | > 25 | 4.76 | > 25 | > 25 | > 25 |
| COc1c(O)cc2oc(-c3ccc(O)cc3)cc(=O)c2c1O |  | > 100 | > 100 | 16.1 | > 100 |  | > 100 |  | > 100 |  | > 100 |  | > 100 | > 100 | > 100 |  |  |  |  |  |
| O=CN/C=C/c1cccc(O)c1 |  | > 100 | > 100 | > 76.8 | 84.6 |  | > 100 |  | > 68.4 |  | > 89.2 |  | > 93.4 | 77.6 | > 100 |  |  |  |  |  |
| O=C(Nc1ccncc1)C(=O)c1cn(Cc2ccc(Cl)cc2)c2ccccc12 | 0.0416 | > 100 | > 100 | > 100 | > 100 | 0.457 | > 100 | 0.0363 | > 100 |  |  | 0.0775 | > 100 | > 100 | 34.8 | 0.0622 | 0.544 | 0.082 | 0.0585 | 0.0265 |
| O=C(Nc1cccc(-n2cc(-c3ccncc3)c(-c3cc(O)cc(Cl)c3)n2)c1)Nc1ccc(Cl)c(C(F)(F)F)c1 | 1.95 | 5.09 | 16.6 | 15.5 | 15.3 |  |  | 2.63 | 8.54 | 1.99 | 5.34 | 3.1 | 16 | 7.37 | 11.9 | 3.7 | 3.9 | 3.1 | 2.59 | 2.59 |
| CCCc1cc(=O)[nH]c(-n2nc(C)cc2C)n1 | 5.16 | 28.4 | > 100 | > 100 | > 100 |  |  | 4.31 | > 100 | 6.23 | 40 | 3.19 | > 100 | > 100 | > 100 | 4.5 | 11.7 | 3.97 | 1.26 | 3.4 |

From PubChem BioAssay (NCI)
